Target: GST-Bcl-2 (Homo sapiens, UniProt P10415)
Test: Time Resolved-Fluorescence Resonance Energy Transfer (TR-FRET) Bcl-2 binding assay
Settings: GST-Bcl-2 1 nM, F-Bak peptide probe 100 nM, Tb-anti-GST 1 nM; 3 hours at room temperature; Ki by Wang's equation
Method: Determination of the utility of compounds having Formula (I) as binders to and inhibitors of anti-apoptotic Bcl-2 proteins was performed using the Time Resolved-Fluorescence Resonance Energy Transfer (TR-FRET) Assay. Tb-anti-GST antibody was purchased from Invitrogen (Catalog No. PV4216).
Representative compounds were serially diluted in dimethyl sulfoxide (DMSO) starting at 50 μM (2x starting concentration; 10% DMSO) and 10 μL were transferred into a 384-well plate. The samples are then mixed on a shaker for 1 minute and incubated for an additional 3 hours at room temperature. For each assay, the probe/antibody and protein/probe/antibody were included on each assay plate as negative and positive controls, respectively. Fluorescence was measured on the ENVISION plate reader (Perkin Elmer) using a 340/35 nm excitation filter and 520/525 (F-Bak peptide) and 495/510 nm (Tb-labeled […] antibody) emission filters. Inhibition constants (Ki) are shown in TABLE 2 below and were determined using Wang's equation (Wang Z.-X. An Exact Mathematical Expression For Describing Competitive Binding Of Two Different Ligands To A Protein Molecule. FEBS Lett. 1995, 360:111-4).
The inhibition constant (Ki) is the dissociation constant of an enzyme-inhibitor complex or a protein/small molecule complex, wherein the small molecule is inhibiting binding of one protein to another protein. So a large Ki value indicates a low binding affinity and a small Ki value indicates a high binding affinity.
The compounds are therefore expected to have utility in treatment of diseases during which anti-apoptotic Bcl-2 protein is expressed.

Chain of GST-Bcl-2 (P10415 whole entry): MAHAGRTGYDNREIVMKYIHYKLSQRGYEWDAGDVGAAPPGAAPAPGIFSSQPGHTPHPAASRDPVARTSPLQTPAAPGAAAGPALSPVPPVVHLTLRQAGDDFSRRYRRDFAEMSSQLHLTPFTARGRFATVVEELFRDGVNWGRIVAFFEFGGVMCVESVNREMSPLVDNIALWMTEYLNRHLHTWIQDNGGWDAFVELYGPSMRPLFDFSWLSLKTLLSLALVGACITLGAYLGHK

Row | Structure (SMILES) | Ki [nM]
1 | O=C(NS(=O)(=O)c1cccc([N+](=O)[O-])c1)c1ccc(N2CCN(Cc3ccccc3-c3ccc(Cl)cc3)CC2)cc1 [Example 5, 4-{4-[(4′-chloro-1,1′-biphenyl-2-yl)methyl]piperazin-1-yl}-N-[(3-nitrophenyl)sulfonyl]benzamide] | 185
2 | O=C(NS(=O)(=O)c1ccccc1)c1ccc(N2CCN(Cc3ccccc3-c3ccc(Cl)cc3)CC2)cc1 [Example 6, 4-{4-[(4′-chloro-1,1′-biphenyl-2-yl)methyl]piperazin-1-yl}-N-(phenylsulfonyl)benzamide] | 212
3 | O=C(NS(=O)(=O)c1cccc([N+](=O)[O-])c1)c1ccc(N2CCN(Cc3ccccc3-c3ccc(Cl)cc3)CC2)cc1OCCc1ccccc1 [Example 8, 4-{4-[(4′-chloro-1,1′-biphenyl-2-yl)methyl]piperazin-1-yl}-N-[(3-nitrophenyl)sulfonyl]-2-(2-phenylethoxy)benzamide] | 975
4 | O=C(NS(=O)(=O)c1cccc([N+](=O)[O-])c1)c1ccc(N2CCN(Cc3ccccc3-c3ccc(Cl)cc3)CC2)cc1Oc1ccccc1 [Example 9, 4-{4-[(4′-chloro-1,1′-biphenyl-2-yl)methyl]piperazin-1-yl}-N-[(3-nitrophenyl)sulfonyl]-2-phenoxybenzamide] | 26.5
5 | O=C(NS(=O)(=O)c1ccc(Br)cc1)c1ccc(N2CCN(Cc3ccccc3-c3ccc(Cl)cc3)CC2)cc1 [Example 11, N-[(4-bromophenyl)sulfonyl]-4-{4-[(4′-chloro-1,1′-biphenyl-2-yl)methyl]piperazin-1-yl}benzamide] | 208
6 | O=C(NS(=O)(=O)c1cccc([N+](=O)[O-])c1)c1ccc(N2CCN(Cc3ccccc3-c3ccc(Cl)cc3)CC2)cc1Sc1ccccc1 [Example 13, 4-{4-[(4′-chloro-1,1′-biphenyl-2-yl)methyl]piperazin-1-yl}-N-[(3-nitrophenyl)sulfonyl]-2-(phenylthio)benzamide] | 72.9
7 | O=C(NS(=O)(=O)c1cccc([N+](=O)[O-])c1)c1ccc(N2CCN(Cc3ccccc3-c3ccc(Cl)cc3)CC2)cc1NCc1ccccc1 [Example 14, 2-(benzylamino)-4-{4-[(4′-chloro-1,1′-biphenyl-2-yl)methyl]piperazin-1-yl}-N-[(3-nitrophenyl)sulfonyl]benzamide] | 749
8 | O=C(NS(=O)(=O)c1cccc([N+](=O)[O-])c1)c1ccc(N2CCN(Cc3ccccc3-c3ccc(Cl)cc3)CC2)cc1Cc1ccccc1 [Example 15, 2-benzyl-4-{4-[(4′-chloro-1,1′-biphenyl-2-yl)methyl]piperazin-1-yl}-N-[(3-nitrophenyl)sulfonyl]benzamide] | 48
9 | O=C(NS(=O)(=O)c1ccc([N+](=O)[O-])cc1)c1ccc(N2CCN(Cc3ccccc3-c3ccc(Cl)cc3)CC2)cc1 [Example 16, 4-{4-[(4′-chloro-1,1′-biphenyl-2-yl)methyl]piperazin-1-yl}-N-[(4-nitrophenyl)sulfonyl]benzamide] | 273
10 | O=C(NS(=O)(=O)c1cccc([N+](=O)[O-])c1)c1ccc(N2CCN(Cc3ccccc3-c3ccc(Cl)cc3)CC2)cc1CCc1ccccc1 [Example 18, 4-{4-[(4′-chloro-1,1′-biphenyl-2-yl)methyl]piperazin-1-yl}-N-[(3-nitrophenyl)sulfonyl]-2-(2-phenylethyl)benzamide] | 746
11 | O=C(NS(=O)(=O)c1ccc(F)cc1)c1ccc(N2CCN(Cc3ccccc3-c3ccc(Cl)cc3)CC2)cc1 [Example 19, 4-{4-[(4′-chloro-1,1′-biphenyl-2-yl)methyl]piperazin-1-yl}-N-[(4-fluorophenyl)sulfonyl]benzamide] | 403
12 | O=C(NS(=O)(=O)c1cccc(F)c1)c1ccc(N2CCN(Cc3ccccc3-c3ccc(Cl)cc3)CC2)cc1 [Example 20, 4-{4-[(4′-chloro-1,1′-biphenyl-2-yl)methyl]piperazin-1-yl}-N-[(3-fluorophenyl)sulfonyl]benzamide] | 280
13 | O=C(NS(=O)(=O)c1cccc([N+](=O)[O-])c1)c1ccc(N2CCN(Cc3ccccc3-c3ccc(Cl)cc3)CC2)cc1[S+]([O-])c1ccccc1 (centres unmarked) [Example 21, 4-{4-[(4′-chloro-1,1′-biphenyl-2-yl)methyl]piperazin-1-yl}-N-[(3-nitrophenyl)sulfonyl]-2-(phenylsulfinyl)benzamide] | 87.3
14 | O=C(NS(=O)(=O)c1ccc([N+](=O)[O-])cc1)c1ccc(N2CCN(Cc3ccccc3-c3ccc(Cl)cc3)CC2)cc1Oc1ccccc1 [Example 22, 4-{4-[(4′-chloro-1,1′-biphenyl-2-yl)methyl]piperazin-1-yl}-N-[(4-nitrophenyl)sulfonyl]-2-phenoxybenzamide] | 17.3
15 | O=C(NS(=O)(=O)c1cccc(F)c1)c1ccc(N2CCN(Cc3ccccc3-c3ccc(Cl)cc3)CC2)cc1Oc1ccccc1 [Example 23, 4-{4-[(4′-chloro-1,1′-biphenyl-2-yl)methyl]piperazin-1-yl}-N-[(3-fluorophenyl)sulfonyl]-2-phenoxybenzamide] | 27.3
16 | O=C(NS(=O)(=O)c1ccc(F)cc1)c1ccc(N2CCN(Cc3ccccc3-c3ccc(Cl)cc3)CC2)cc1Oc1ccccc1 [Example 24, 4-{4-[(4′-chloro-1,1′-biphenyl-2-yl)methyl]piperazin-1-yl}-N-[(4-fluorophenyl)sulfonyl]-2-phenoxybenzamide] | 10.3
17 | O=C(NS(=O)(=O)c1cccc([N+](=O)[O-])c1)c1ccc(N2CCN(Cc3ccccc3-c3ccc(Cl)cc3)CC2)cc1S(=O)(=O)c1ccccc1 [Example 26, 4-{4-[(4′-chloro-1,1′-biphenyl-2-yl)methyl]piperazin-1-yl}-N-[(3-nitrophenyl)sulfonyl]-2-(phenylsulfonyl)benzamide] | 627
18 | O=C(NS(=O)(=O)c1ccc(Cl)c([N+](=O)[O-])c1)c1ccc(N2CCN(Cc3ccccc3-c3ccc(Cl)cc3)CC2)cc1Oc1ccccc1 [Example 27, 4-{4-[(4′-chloro-1,1′-biphenyl-2-yl)methyl]piperazin-1-yl}-N-[(4-chloro-3-nitrophenyl)sulfonyl]-2-phenoxybenzamide] | 4.16
19 | CN(C)CCOc1cccc(-c2ccc(Cl)cc2)c1CN1CCN(c2ccc(C(=O)NS(=O)(=O)c3cccc([N+](=O)[O-])c3)c(Oc3cccc4[nH]ccc34)c2)CC1 [Example 28, 4-[4-({4′-chloro-3-[2-(dimethylamino)ethoxy]-1,1′-biphenyl-2-yl}methyl)piperazin-1-yl]-2-(1H-indol-4-yloxy)-N-[(3-nitrophenyl)sulfonyl]benzamide] | 0.125
20 | CN(C)CCOc1cccc(-c2ccc(Cl)cc2)c1CN1CCN(c2ccc(C(=O)NS(=O)(=O)c3ccccc3)c(Oc3cccc4[nH]ccc34)c2)CC1 [Example 29, 4-[4-({4′-chloro-3-[2-(dimethylamino)ethoxy]-1,1′-biphenyl-2-yl}methyl)piperazin-1-yl]-2-(1H-indol-4-yloxy)-N-(phenylsulfonyl)benzamide] | 2.27
21 | CC1(C)CCC(CN2CCN(c3ccc(C(=O)NS(=O)(=O)c4cccc([N+](=O)[O-])c4)c(Oc4ccc5[nH]ccc5c4)c3)CC2)=C(c2ccc(Cl)cc2)C1 [Example 30, 4-(4-{[2-(4-chlorophenyl)-4,4-dimethylcyclohex-1-en-1-yl]methyl}piperazin-1-yl)-2-(1H-indol-5-yloxy)-N-[(3-nitrophenyl)sulfonyl]benzamide] | 0.209
22 | CC1(C)CCC(CN2CCN(c3ccc(C(=O)NS(=O)(=O)c4ccccc4)c(Oc4ccc5[nH]ccc5c4)c3)CC2)=C(c2ccc(Cl)cc2)C1 [Example 31, 4-(4-{[2-(4-chlorophenyl)-4,4-dimethylcyclohex-1-en-1-yl]methyl}piperazin-1-yl)-2-(1H-indol-5-yloxy)-N-(phenylsulfonyl)benzamide] | 21.6
23 | CC1(C)CCC(CN2CCN(c3ccc(C(=O)NS(=O)(=O)c4cccc(C#N)c4)c(Oc4ccc5[nH]ccc5c4)c3)CC2)=C(c2ccc(Cl)cc2)C1 [Example 32, 4-(4-{[2-(4-chlorophenyl)-4,4-dimethylcyclohex-1-en-1-yl]methyl}piperazin-1-yl)-N-[(3-cyanophenyl)sulfonyl]-2-(1H-indol-5-yloxy)benzamide] | 5.94
24 | CC1(C)CCC(CN2CCN(c3ccc(C(=O)NS(=O)(=O)c4cccc(C(F)(F)F)c4)c(Oc4ccc5[nH]ccc5c4)c3)CC2)=C(c2ccc(Cl)cc2)C1 [Example 33, 4-(4-{[2-(4-chlorophenyl)-4,4-dimethylcyclohex-1-en-1-yl]methyl}piperazin-1-yl)-2-(1H-indol-5-yloxy)-N-{[3-(trifluoromethyl)phenyl]sulfonyl}benzamide] | 4.09
25 | CC1(C)CCC(CN2CCN(c3ccc(C(=O)NS(=O)(=O)c4cccc(Cl)c4)c(Oc4ccc5[nH]ccc5c4)c3)CC2)=C(c2ccc(Cl)cc2)C1 [Example 34, 4-(4-{[2-(4-chlorophenyl)-4,4-dimethylcyclohex-1-en-1-yl]methyl}piperazin-1-yl)-N-[(3-chlorophenyl)sulfonyl]-2-(1H-indol-5-yloxy)benzamide] | 5.14
26 | CC1(C)CCC(CN2CCN(c3ccc(C(=O)NS(=O)(=O)c4cccc(F)c4)c(Oc4ccc5[nH]ccc5c4)c3)CC2)=C(c2ccc(Cl)cc2)C1 [Example 35, 4-(4-{[2-(4-chlorophenyl)-4,4-dimethylcyclohex-1-en-1-yl]methyl}piperazin-1-yl)-N-[(3-fluorophenyl)sulfonyl]-2-(1H-indol-5-yloxy)benzamide] | 8.84

— patent US8426422B2, “Apoptosis-inducing agents for the treatment of cancer and immune and autoimmune diseases” (Abbvie Inc., priority 2009, dated 2013)
